The record followed here is article PMC4773067 (PLoS ONE, 2016).

In assay [1] the test system is hSR-transfected CHO-K1 cells. Kind of assay: Antagonist cAMP response (coincubation with hSCT, HTRF-LANCE cAMP assay). It counts as cell-based, human. The settings on record: Table 4; cAMP response with 5 nM hSCT plus analog 10^-12 to 10^-6 M, 30 min. As for the experimental part:
Detection was subsequently performed according to the manufacturer’s instructions.
(§1) All in vitro results were analyzed in quadruplicate, and the data are expressed as the means ± SEM. Significant differences were identified using Student’s t-test at p<0.05. The dose response was analyzed using GraphPad Prism 5.0 software with a variable slope (four parameters).

Assay [2] has as its system hSR-transfected CHO-K1 cells. Kind of assay: Agonist cAMP response (HTRF-LANCE cAMP assay). The class given is cell-based, human. As to conditions: for Agonistic response: Table 4, cAMP response at various doses. As for the experimental part:
The cAMP responses in hSR-transfected CHO-K1 cells were detected using the HTRF-LANCE® cAMP assay kit. After 48 h of transfection, the cells were detached by nonenzymatic treatment using Versene. The cells were counted and processed according to the manufacturer’s instructions to measure the cAMP response following cell treatment with the secretin analogs. hSCT was used as a positive control. The TRF signals (340 nm excitation/665 nm emission) were detected using a VICTOR X4 spectrofluorometer (PerkinElmer), and the cAMP concentration was determined using a standard curve.
as §1
On the technique in general: In TR-FRET formats the signal depends on donor and acceptor labels being close together.

Assay [3] deals with SNAPtag-hSR (human secretin receptor) in transfected CHO-K1 cells (Homo sapiens, UniProt P47872). Kind of assay: FRET competitive binding assay.
Sequence of SNAPtag-hSR (human secretin receptor) in transfected CHO-K1 cells (P47872 23-440): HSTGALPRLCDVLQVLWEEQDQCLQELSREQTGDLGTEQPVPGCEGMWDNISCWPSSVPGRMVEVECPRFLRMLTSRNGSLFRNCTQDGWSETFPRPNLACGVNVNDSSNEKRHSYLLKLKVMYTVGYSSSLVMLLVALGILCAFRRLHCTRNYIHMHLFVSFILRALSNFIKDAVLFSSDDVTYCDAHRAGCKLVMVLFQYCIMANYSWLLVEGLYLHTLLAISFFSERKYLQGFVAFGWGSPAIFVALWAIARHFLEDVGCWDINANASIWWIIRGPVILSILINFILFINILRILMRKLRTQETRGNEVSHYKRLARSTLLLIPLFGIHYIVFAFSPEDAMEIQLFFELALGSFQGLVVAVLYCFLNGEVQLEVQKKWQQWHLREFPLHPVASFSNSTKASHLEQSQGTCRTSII
For assay [4], the target named is human secretin receptor (human) (UniProt P47872). The assay can be described thus: FRET or BRET; competitive binding, dose response 10^-12 M to 10^-4 M of unlabelled peptide against 500 nM labelled hSCT on CHO-K1 cells with Lumi4-Tb-labelled SNAPtag-hSR, 4–8°C, 1 h; nonspecific signal with 100 μM unlabelled hSCT subtracted; four-parameter fit. Background: In BRET a luciferase serves as donor, and the signal depends on an acceptor being close.
Sequence of human secretin receptor (human) (P47872 23-440): as above

Entries after “also recorded” stand apart in the source; their conditions may differ.

With `CC(C)C[C@H](NC(=O)CNC(=O)[C@H](CCC(N)=O)NC(=O)[C@H](CC(C)C)NC(=O)[C@H](CC(C)C)NC(=O)[C@H](CCCNC(=N)N)NC(=O)[C@H](CCC(N)=O)NC(=O)[C@H](CC(C)C)NC(=O)[C@H](CCCNC(=N)N)NC(=O)[C@H](C)NC(=O)[C@H](CO)NC(=O)[C@H](CC(=O)O)NC(=O)[C@H](CCC(N)=O)NC(=O)[C@H](CC(C)C)NC(=O)[C@H](CCCNC(=N)N)NC(=O)[C@H](CO)NC(=O)[C@H](CC(C)C)NC(=O)[C@H](CCC(=O)O)NC(=O)[C@H](CO)NC(=O)[C@@H](NC(=O)[C@H](Cc1ccccc1)NC(=O)[C@@H](NC(=O)CNC(=O)[C@H](CC(=O)O)NC(=O)[C@H](CO)NC(=O)[C@@H](N)Cc1c[nH]cn1)[C@@H](C)O)[C@@H](C)O)C(=O)N[C@H](C(=O)O)C(C)C` [Analog 15, Rat SCT], the Antagonistic response result in assay [1] is “Absent”. In assay [2], the “agonist activity at hSR, cAMP (in words)” value was “agonist” and the Agonistic response result is recorded as “Present”.

As for `CC(C)C[C@H](NC(=O)CNC(=O)[C@H](CCC(N)=O)NC(=O)[C@H](CC(C)C)NC(=O)[C@H](CC(C)C)NC(=O)[C@H](CCCNC(=N)N)NC(=O)[C@H](CCC(N)=O)NC(=O)[C@H](CC(C)C)NC(=O)[C@H](CCCNC(=N)N)NC(=O)[C@H](C)NC(=O)CNC(=O)[C@H](CCC(=O)O)NC(=O)[C@H](CCCNC(=N)N)NC(=O)[C@H](CC(C)C)NC(=O)[C@H](CCCNC(=N)N)NC(=O)[C@H](CO)NC(=O)[C@H](CC(C)C)NC(=O)[C@H](CCC(=O)O)NC(=O)[C@H](CO)NC(=O)[C@@H](NC(=O)[C@H](Cc1ccccc1)NC(=O)[C@@H](NC(=O)CNC(=O)[C@H](CC(=O)O)NC(=O)[C@H](CO)NC(=O)[C@@H](N)Cc1c[nH]cn1)[C@@H](C)O)[C@@H](C)O)C(=O)N[C@H](C(=O)O)C(C)C` [hSCT, human secretin, reference compound], in assay [1], the Antagonistic response result is “Absent”. In addition, in assay [2], the Agonistic response result was “Present”.

Consider “H2N-Ala-Ser-Asp-Gly-Thr-Phe-Thr-Ser-Glu-Leu-Ser-Arg-Leu-Arg-Glu-Gly-Ala-Arg-Leu-Gln-Arg-Leu-Leu-Gln-Gly-Leu-Val- COOH [Analog 2, h[Ala^1]SCT]”, for which the Antagonistic response result in assay [1] is given as “Absent”. In assay [2], the Agonistic response result is “Absent”.

As to “H2N-Arg-Glu-Gly-Ala-Arg-Leu-Gln-Arg-Leu-Leu-Gln-Gly-Leu-Val- COOH [Analog 20, Ct-SCT]”, the Antagonistic response entry in assay [1] is on record as “Absent”. The Agonistic response result in assay [2] is given as “Absent”.

Consider “H2N-Cit-Ser-Asp-Gly-Thr-Phe-Thr-Ser-Glu-Leu-Ser-Arg-Leu-Arg-Glu-Gly-Ala-Arg-Leu-Gln-Arg-Leu-Leu-Gln-Gly-Leu-Val- COOH [Analog 10, h[Cit^1]SCT]”, for which the Antagonistic response result in assay [1] was “Absent”. Besides, the Agonistic response entry in assay [2] is “Absent”.

On to “H2N-His-Pro-Asp-Gly-Thr-Phe-Thr-Ser-Glu-Leu-Ser-Arg-Leu-Arg-Glu-Gly-Ala-Arg-Leu-Gln-Arg-Leu-Leu-Gln-Gly-Leu-Val- COOH [Analog 1, h[Pro^2]SCT]”, for which the Antagonistic response result in assay [1] was “Absent”. Also, the Agonistic response result in assay [2] is “Absent”.

As to “H2N-His-Ser-Asp-Cha-Thr-Phe-Thr-Ser-Glu-Leu-Ser-Arg-Leu-Arg-Glu-Gly-Ala-Arg-Leu-Gln-Arg-Leu-Leu-Gln-Gly-Leu-Val- COOH [Analog 7, h[Cha^4]SCT]”, the Antagonistic response result in assay [1] is “Absent”. In addition, the Agonistic response result in assay [2] was “Absent”.

On to “H2N-His-Ser-Asp-D-allyl,Gly-Thr-Phe-Thr-Ser-Glu-Leu-Ser-Arg-Leu-Arg-Glu-Gly-Ala-Arg-Leu-Gln-Arg-Leu-Leu-Gln-Gly-Leu-Val- COOH [Analog 5, h[(D-allyl,Gly^4]SCT]”, for which the Antagonistic response entry in assay [1] is on record as “Absent”. The Agonistic response entry in assay [2] was “Absent”.

Consider “H2N-His-Ser-Asp-Gly-Leu-Phe-Thr-Ser-Glu-Tyr-Ser-Lys-Met-Arg-Gly-Asn-Ala-Gln-Val-Gln-Lys-Phe-Ile-Gln-Asn-Leu-Met- COOH [Analog 17, Chicken SCT]”, for which the Antagonistic response result in assay [1] is on record as “Absent”. In assay [2], the Agonistic response entry is listed as “Absent”.

With “H2N-His-Ser-Asp-Gly-Thr-Phe-Thr-Ser-Glu-Leu-Ser-Arg-Leu- COOH [Analog 19, Nt-SCT]”, the Antagonistic response result in assay [1] is given as “Absent”. The Agonistic response entry in assay [2] was “Absent”.

For “H2N-His-Ser-Asp-Pro-Thr-Phe-Thr-Ser-Glu-Leu-Ser-Arg-Leu-Arg-Glu-Gly-Ala-Arg-Leu-Gln-Arg-Leu-Leu-Gln-Gly-Leu-Val- COOH [Analog 13, h[Pro^4]SCT]”, in assay [1], the Antagonistic response entry was “Absent”. Also, the Agonistic response result in assay [2] is given as “Absent”.

As to “H2N-His-Ser-Asp-Tyr-Thr-Phe-Thr-Ser-Glu-Leu-Ser-Arg-Leu-Arg-Glu-Gly-Ala-Arg-Leu-Gln-Arg-Leu-Leu-Gln-Gly-Leu-Val- COOH [Analog 14, h[Tyr^4]SCT]”, the Antagonistic response result in assay [1] is “Absent”. Further, the Agonistic response result in assay [2] is listed as “Absent”.

Take “H2N-His-Ser-Asp-p-Cl,D-Phe^4-Thr-Phe-Thr-Ser-Glu-Leu-Ser-Arg-Leu-Arg-Glu-Gly-Ala-Arg-Leu-Gln-Arg-Leu-Leu-Gln-Gly-Leu-Val- COOH [Analog 4, h[(p-Cl,D-Phe^4]SCT]”: the Antagonistic response result in assay [1] is “Absent”. For the same molecule, the Agonistic response result in assay [2] was “Absent”.

With “H2N-His-Ser-D-Asp-Gly-Thr-Phe-Thr-Ser-Glu-Leu-Ser-Arg-Leu-Arg-Glu-Gly-Ala-Arg-Leu-Gln-Arg-Leu-Leu-Gln-Gly-Leu-Val- COOH [Analog 8, h[D-Asp^3]SCT]”, in assay [1], the Antagonistic response entry is recorded as “Absent”. Moreover, in assay [2], the Agonistic response entry is “Absent”.

With “H2N-His-Ser-pCO2HPhe-Gly-Thr-Phe-Thr-Ser-Glu-Leu-Ser-Arg-Leu-Arg-Glu-Gly-Ala-Arg-Leu-Gln-Arg-Leu-Leu-Gln-Gly-Leu-Val- COOH [Analog 11, h[pCO2H-Phe^3]SCT]”, in assay [1], the Antagonistic response entry is recorded as “Absent”. In addition, in assay [2], the Agonistic response result is on record as “Absent”.

Consider “H2N-His-Val-Asp-Gly-Arg-Phe-Thr-Ser-Glu-Phe-Ser-Arg-Ala-Arg-Gly-Ser-Ala-Ala-Ile-Arg-Lys-Ile-Ile-Asn-Ser-Ala-Leu-Ala- COOH [Analog 16, Xenopus SCT]”, for which the Antagonistic response entry in assay [1] is “Absent”. In assay [2], the Agonistic response entry is “Absent”.

Take “H2N-His-Val-Asp-Gly-Leu-Phe-Thr-Ser-Glu-Leu-Ser-Lys-Leu-Arg-Gly-Ser-Ala-Val-Ala-Arg-Ser-Phe-Thr-Asn-Ala-Val-Leu- COOH [Analog 18, Coelacanths SCT]”: the Antagonistic response result in assay [1] was “Absent”. Moreover, the Agonistic response result in assay [2] is “Absent”.

Consider “H2N-Leu-Ser-Asp-Gly-Thr-Phe-Thr-Ser-Glu-Leu-Ser-Arg-Leu-Arg-Glu-Gly-Ala-Arg-Leu-Gln-Arg-Leu-Leu-Gln-Gly-Leu-Val- COOH [Analog 3, h[Leu^1]SCT]”, for which the Antagonistic response result in assay [1] is given as “Absent”. Also, in assay [2], the Agonistic response entry is listed as “Absent”.

For the molecule “H2N-Orn-Ser-Asp-Gly-Thr-Phe-Thr-Ser-Glu-Leu-Ser-Arg-Leu-Arg-Glu-Gly-Ala-Arg-Leu-Gln-Arg-Leu-Leu-Gln-Gly-Leu-Val- COOH [Analog 12, h[Orn^1]SCT]”, in assay [1], the Antagonistic response result is given as “Absent”. For the same molecule, the Agonistic response entry in assay [2] is listed as “Absent”.

“H2N-Phe-Thr-Ser-Glu-Leu-Ser-Arg-Leu-Arg-Glu-Gly-Ala-Arg-Leu-Gln-Arg-Leu-Leu-Gln-Gly-Leu-Val- COOH [Analog 6, hSCT(6–27)]”: the Antagonistic response result in assay [1] is “Absent”. For the same molecule, the Agonistic response result in assay [2] was “Absent”.

Regarding “H2N-Tic-Ser-Asp-Gly-Thr-Phe-Thr-Ser-Glu-Leu-Ser-Arg-Leu-Arg-Glu-Gly-Ala-Arg-Leu-Gln-Arg-Leu-Leu-Gln-Gly-Leu-Val- COOH [Analog 9, h[Tic^1]SCT]”, the Antagonistic response entry in assay [1] is recorded as “Absent”. Further, the Agonistic response entry in assay [2] is listed as “Absent”.

Take “human pituitary adenylate cyclase-activating polypeptide [hPACAP, reference compound]”: the “agonist activity at hSR, cAMP (in words)” value in assay [2] was “could also activate hSR to produce cAMP; also recorded: only at high concentrations”. Also, the “in vitro binding to hSR (in words)” value in assay [3] is on record as “only at high concentrations”.

Turning to human secretin (peptide), the IC50 in assay [4] is 1.63 nM.

“human vasoactive peptide [hVIP, reference compound]”: in assay [2], the “agonist activity at hSR, cAMP (in words)” value is on record as “could also activate hSR to produce cAMP; also recorded: only at high concentrations”.

As usually defined, the IC50 is the midpoint of a concentration-inhibition curve. A high value points to a need for much substance.
